Patent publication US12268757B2, “Cyclen based compounds, coordination compounds, peptides, pharmaceutical preparation, and use thereof” (USTAV ORGANICKE CHEMIE A BIOCHEMIE AV CR V.V.I., priority 2019, dated 2025)

What was measured:
[1] = Kinetic inertness: acid-assisted decomplexation followed by HPLC; format: physicochemical; conditions: pH ~2.0, 40° C.; for Peak area of intact chelate: TFA 0.08%, UV 280 nm
Description: Stability (kinetic inertness) of the Gd(III) building block Gd-3 prepared in Example 4 was tested by following acid-assisted decomplexation by HPLC. Isocratic elution method was used for analysis. Constant concentration of TFA (0.08%) was maintained in the mobile phase (pH ˜2.0), while methanol content was varied to tune the retention time of the analyte. With increasing retention time (i.e. time spent in the acidic medium), more decomplexation should occur and the amount of intact chelate should decrease mono-exponentially (pseudo first-order reaction conditions), while a peak of free chelator should appear in the chromatogram. The HPLC conditions were as follows: column Kinetex C18, 100×3 mm, 2.6 um; column temperature maintained at 40° C.; mobile phase: TFA (constant 0.08% vol.), MeOH (variable), water; flow-rate 0.6 mL/min; UV detection at 280 nm; injection of 2 uL of 0.5 mM sample.

[2] = Relaxivity of Gd(III) chelates; format: physicochemical
Description: Relaxivity of Gd(III) chelate Gd-6 and of a peptide Gly-Phe-(Gd-6)-Gly-NH2 have been measured at 40° C. and 0.5 T in 10 mM MOPS buffer pH=7.0. It is apparent from the data that the relaxivity of the peptide, where the Gd-6 is incorporated within the peptide chain, is higher than the relaxivity of a standalone Gd-6.

Row | Relaxivity r1 at 40° C., and 0.5 T ([2]; 10 mM MOPS buffer pH=7.0, calculated r1 = R1/c) [mM⁻¹ s⁻¹] | Relaxation time T1 ([2]; 40° C., 0.5 T, 10 mM MOPS buffer pH=7.0) [ms] | Substance | Peak area of intact chelate ([1]; 36% methanol in mobile phase, retention time 6.894 min) [mAU · s] | Peak area of intact chelate ([1]; 37% methanol in mobile phase, retention time 6.072 min) [mAU · s] | Peak area of intact chelate ([1]; 38% methanol in mobile phase, retention time 5.570 min) [mAU · s] | Peak area of intact chelate ([1]; 39% methanol in mobile phase, retention time 5.044 min) [mAU · s] | Peak area of intact chelate ([1]; 40% methanol in mobile phase, retention time 4.632 min) [mAU · s] | Stability (kinetic inertness) under acidic conditions ([1]; with increasing retention time in TFA 0.08% mobile phase)
1 | – | – | Gd(III) Complex of 2,2′,2″-(10-((2S,3S,4S)-1-(2-(9H-fluoren-9-yl)acetoxy)-2-carboxy-4-hydroxypyrrolidin-3-yl)-1,4,7,10-tetraazacyclododecane-1,4,7-triyl)triacetic acid [Gd-3] | 690.9 | 686.6 | 688.4 | 685.5 | 681.6 | no decrease in the peak area
2 | 3.5 | 1562 | Gd(III) Complex of 2,2′,2″-(10-((2S,3S,4S)-2-carboxy-4-hydroxypyrrolidin-3-yl)-1,4,7,10-tetraazacyclododecane-1,4,7-triyl)triacetic acid [Gd-6] | – | – | – | – | – | –
